From patent publication US10772827B2, “Composition for treating apoplexy through nasal administration” (INDUSTRY-UNIVERSITY COOPERATION FOUNDATION HANYANG …, priority 2015, dated 2020)
Where no end group is shown, it is not given here.

Assays:
Fas [1] = biological target: T1, Fas (Mus musculus, UniProt P25446); assay: FTP binding to Fas-expressing hypoxic Neuro2a cells (flow cytometry, confocal microscopy); details: for binding to Fas-expressing hypoxic cells: hypoxic Neuro2a cells (OGD 24 h)
T1 construct: Neuro2a cells were cultured in an oxygen glucose deprivation (OGD) medium for 24 hour under hypoxic conditions to induce Fas expression; endogenous in cells; host or cells: Neuro2a (mouse neuroblastoma, ATCC), hypoxia/OGD-induced
T1 sequence (P25446 22-327): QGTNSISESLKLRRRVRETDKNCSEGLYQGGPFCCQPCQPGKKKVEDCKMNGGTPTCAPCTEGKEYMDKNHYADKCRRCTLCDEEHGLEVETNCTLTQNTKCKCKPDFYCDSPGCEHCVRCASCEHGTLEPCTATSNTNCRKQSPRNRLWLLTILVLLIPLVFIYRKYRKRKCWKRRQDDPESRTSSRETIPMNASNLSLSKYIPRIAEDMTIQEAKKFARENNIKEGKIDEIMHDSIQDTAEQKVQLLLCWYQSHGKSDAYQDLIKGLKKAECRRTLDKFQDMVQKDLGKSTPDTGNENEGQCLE
Description: (§1) Mouse neuroblastoma (Neuro2a, N2a) cells were obtained from ATCC and cultured in Dulbecco's Modified Eagle's Medium (DMEM) containing 10% fetal bovine serum (FBS), penicillin (100 IU/ml), and streptomycin (100 μg/ml). To duplicate an ischemia/reperfusion environment in vitro, the Neuro2a cells were cultured in a 6-well plate and maintained under a hypoxic condition (94% N2, 5% CO2, and 1% O2) in an oxygen glucose deprivation (OGD) medium (Life Technologies) for 24 hours. Subsequently, the cells were re-oxygenated in DMEM supplemented with 10% FBS (5% CO2, 20% O2, 37° C.) for 24 hours.
To identify co-localization of a FTP and a Fas receptor, Neuro2a cells were seeded on a cover slip and maintained under a hypoxic condition in an OGD medium for 24 hours. After incubating for 24 hours, the cells were treated with PBS containing 1% BSA and 0.05% Tween 20 and blocked at 37° C. for 2 hours, followed by staining with an anti-Fas antibody (Abcam) and an Alexa647-conjugated FTP at 4° C. for 2 hours. After incubating for 2 hours, the cells were washed three times with PBS containing 0.05% Tween 20, and stained with a secondary antibody (Abcam) at 4° C. for 2 hours under a dark condition. Nuclei of the cells were counterstained with Hoechst 33342 and fixed with an aqueous mounting solution (Abcam). Fluorescence signals in the cells were obtained using a TSP-SP5 confocal microscope (Leika, Germany).

[2] = tested on: hypoxia-induced Neuro2a cells; assay: Inhibition of in vitro Fas-mediated apoptosis (PE Annexin V / 7-AAD flow cytometry); type: cell-based, mouse
Description: Mouse neuroblastoma (Neuro2a, N2a) cells were obtained from ATCC and cultured in Dulbecco's Modified Eagle's Medium (DMEM) containing 10% fetal bovine serum (FBS), penicillin (100 IU/ml), and streptomycin (100 μg/ml). To duplicate an ischemia/reperfusion environment in vitro, the Neuro2a cells were cultured in a 6-well plate and maintained under a hypoxic condition (94% N2, 5% CO2, and 1% O2) in an oxygen glucose deprivation (OGD) medium (Life Technologies) for 24 hours. Subsequently, the cells were re-oxygenated in DMEM supplemented with 10% FBS (5% CO2, 20% O2, 37° C.) for 24 hours. To examine an inhibitory effect of a FTP, hypoxia-induced Neuro2a cells were treated with 1,000 μM of a FTP. After incubating for 24 hours, the cells were stained using a PE Annexin V apoptosis detection kit (BD Pharmingen™) according to the manufacturer's instructions.

MCAO rats [3] = assay: Kaplan-Meier survival of MCAO rats; type: in vivo, rat; details: for animals survived: intranasal delivery; for rats that died over time: of the 18 rats per group, day 1 until day 5 after reperfusion, FIG. 4H
Description: (§2) Briefly, animals were anesthetized with 5% isoflurane. […] Thereafter, the CCA was completely occluded using a clip.
The survival rate of each group of animals was evaluated using a previously described method^[3].

Fas [4] = biological target: T1, Fas; assay: Competition assay of a Fas antibody and a FTP on hypoxic Neuro2a cells; type: binding; details: FIG. 1C
Description: FIG. 1C illustrates the results of a competition assay of a Fas antibody and a FTP, wherein the representative histograms show binding of a Fas antibody to hypoxic cells after treatment with a FTP; data is expressed as mean±SD of three replicated experiments; **P<0.01, ***P<0.001; Normoxia represents cells maintained under normal culture conditions, and Hypoxia represents cells cultured in an OGD medium for 24 hours, followed by re-oxygenation in a serum-containing DMEM medium for 24 hours; and FTP: Fas targeting peptide, Scr-FTP: scrambled peptide.

MCAO rats [5] = assay: H&E histology of the brain of MCAO rats; type: in vivo, rat; details: FTP-inoculated group, day 1 to day 5 after reperfusion, FIG. 4F
Source text: as §2
Paraffin-embedded brain sections were de-paraffinized, rehydrated and then subjected to H&E staining according to standard protocols. The H&E stained sections were covered with cover slips and roughly analyzed using an optical microscope.

[6] = tested on: cleaved caspase-8 and caspase-3; assay: Western blotting of cleaved caspase-8 and caspase-3 in hypoxic Neuro2a cells; type: cell-based, mouse
Description: as §1
Neuro2a cells were lysed using a RIPA lysis buffer in the presence of […] phenylmethylsulfonyl fluoride (PMSF) as a protease inhibitor. A total of 50 μg of protein was loaded in a 12% SDS-PAGE gel and transferred onto a nitrocellulose transfer membrane (Whatman). Blots were blocked with 5% skim milk in TBST at room temperature for 2 hours and incubated at 4° C. with primary antibodies (Abcam). After a predetermined period of time, the blots were washed with TBST and incubated for 2 hours with secondary polyclonal antibodies coupled with HRP. After washing the blots three times with TBST, the blots were developed using an ECL western blotting substrate (Promega).

MCAO rats [7] = assay: Neurological evaluation (deficit grade 0-4) of MCAO rats; type: in vivo, rat
Description: as §2
The neurological deficits of each group of rats with or without peptide treatment were evaluated using a commonly known method^[2]. […] Next, the animals were placed on absorbent pads and tails thereof were pulled to examine their grips power. […] The rats were placed in a sufficiently wide space and allowed to move freely. Grade 3 was given for the case in which rats moved in a circle towards the paralyzed side when tails thereof were pulled. Grade 4 was given for the case in which rats spontaneously moved in a circle under a free environment.

MCAO rats [8] = assay: TUNEL analysis of apoptosis in brain sections of MCAO rats; type: in vivo, rat; details: intranasal FTP, FIG. 4G
Description: as §2
A extent of apoptosis in de-paraffinized and rehydrated brain sections was analyzed through TUNEL analysis using an In Situ Cell Death Detection Kit (Roche, Germany) according to the manufacturer's instructions.

MCAO rats [9] = assay: TTC staining and measurement of infarct volume in MCAO rats; type: in vivo, rat; details: 15 mmol I.N. 12 hours after reperfusion
Description: as §2
After a predetermined period of treatment, the brain was immediately removed. The expected area of damage in the brain was sliced into 3 slices (2 mm thick) including a brain matrix and then incubated in 2% 2,3,5-triphenyltetrazolium chloride (TTC, Sigma) at 37° C. for 10 minutes. The brain slices were then fixed in 4% paraformaldehyde and kept at 4° C. for 24 hours until imaging and photographing. The infarct volume was measured using Image J developed by the U.S. National Institute of Health (NIH) and calculated as commonly known.

[10] = rat, in vivo
Description: Intranasal administration of peptides was performed using a pressurized olfactory delivery (POD) device (Impel Neuropharma). Briefly, rats were kept in an isoflurane chamber containing 5% isoflurane for 3 minutes. After the animals were deeply anesthetized, the rats were placed in a supine position for drug injection. A POD tip (Impel Neuropharma) was carefully inserted into a nostril, and then a prefilled 25 μl catheter tube was slowly inserted appropriately 2 cm into the nostril. Thereafter, a peptide solution (PBS) (15 μl of PBS and 500 nM peptide) was slowly injected thereinto. A total of 700 μg of the FTP peptide was intranasally injected 12 hours after MCAO. After intranasal administration, the rats were maintained in the supine position for 5 minutes before they kept back to their designated cage.
A total of 500 μg of FTP was conjugated with Alexa-488 according to the manufacturer's guidelines (Molecular probes, Life Technologies). The Alexa^488 conjugated short peptide was intranasally injected with a final volume of 25 μl into each nostril using a POD device 12 hours after MCAO. After a predetermined period of time, the animals were sacrificed and tissues were excised therefrom. The tissues were washed with cold PBS and surface meninges were removed to avoid auto-fluorescence.

[11] = biological target: T2, Fas on hypoxic mouse neuroblastoma Neuro2a cells (mouse, UniProt P25446 22-327); assay: flow cytometry, Alexa488-labeled peptide on hypoxic Neuro2a cells
T2 construct: whole, on cells; also called Fas receptor; Fas-expressing hypoxic cells
T2 sequence (looked up): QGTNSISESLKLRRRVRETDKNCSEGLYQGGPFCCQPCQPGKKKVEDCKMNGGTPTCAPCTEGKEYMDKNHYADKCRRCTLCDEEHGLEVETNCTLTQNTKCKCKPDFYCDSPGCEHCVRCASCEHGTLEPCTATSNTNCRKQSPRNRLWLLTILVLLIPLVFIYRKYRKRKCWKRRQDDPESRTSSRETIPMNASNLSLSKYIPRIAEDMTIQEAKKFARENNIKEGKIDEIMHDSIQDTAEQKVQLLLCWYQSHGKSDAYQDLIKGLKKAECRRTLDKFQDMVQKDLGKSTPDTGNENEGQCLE

[12] = fluorescence-labeled peptide, FIG. 1B
[13] = hypoxic Neuro2a cells, 1,000 μM FTP, FIG. 2B

YCDEHFCY [FTP]
binding to Fas-expressing hypoxic cells (Fas [1]; [12]): only bound to the Fas-expressing hypoxic cells
binding to normal cells (Fas [1]; fluorescence-labeled peptide, normal (normoxic) Neuro2a cells, FIG. 1B): die not bind to normal cells
engagement to Fas-expressing cells, confocal microscopic images (Fas [1]; hypoxic Neuro2a cells, FIG. 2A): strongly engaged to the Fas-expressing cells
decrease of annexin V positive cells [2, 13]: ~50%
decrease of annexin V/7-ADD positive cells [2, 13]: ~50%
decrease in 7-AAD positive cells ([2]; hypoxic Neuro2a cells, after FTP treatment): any significant decrease was not observed
animals survived (MCAO rats [3]; first of three values printed for 1 to 5 days after reperfusion): 90%
animals survived (MCAO rats [3]; second of three values printed for 1 to 5 days after reperfusion): 80%
animals survived (MCAO rats [3]; third of three values printed for 1 to 5 days after reperfusion): 80%
rats that died over time (MCAO rats [3]): 2 rats
competitive assay between FTP and α-Fas antibody (Fas [4]): bound to different regions of a Fas molecule
interstitial edema and pyknotic nuclei (MCAO rats [5]): started to reduce on day 1 after reperfusion and were alleviated on day 5 thereafter
decrease of cleaved caspase-3 ([6]; FIG. 2C): 40%
decrease of cleaved caspase-8 ([6]; FIG. 2C): ~50%
expression of activated cleaved caspase-8 and activated caspase-3 according to concentration ([6]; no dramatic change at full-length enzyme level, FIG. 3): decreased in a dose-dependent manner
neurological deficits score compared to the saline-treated group (MCAO rats [7]; FIG. 4I): improved
neurological functions, average grade (MCAO rats [7]; grade 0-4, first of four values between day 1 and day 5 after reperfusion): 3.3
neurological functions, average grade (MCAO rats [7]; grade 0-4, fourth of four values between day 1 and day 5 after reperfusion): 1.3
neurological functions, average grade (MCAO rats [7]; grade 0-4, second of four values between day 1 and day 5 after reperfusion): 2.3
neurological functions, average grade (MCAO rats [7]; grade 0-4, third of four values between day 1 and day 5 after reperfusion): 2.3
number of apoptotic cells (TUNEL positive cells) (MCAO rats [8]; day 1 after reperfusion): 26%
number of apoptotic cells (TUNEL positive cells) (MCAO rats [8]; day 5 after reperfusion): 9%
size of the infarcted area compared to Mock (PBS)- or Scr-FTP-treatment (MCAO rats [9]; as early as day 1 after MCAO): significantly reduced the size of the infarcted area
infarct volume (MCAO rats [9]; day 1): 26%
infarct volume (MCAO rats [9]; day 2): 29%
infarct volume (MCAO rats [9]; day 3): 18%
infarct volume (MCAO rats [9]; day 5): 7%
recovery from the infarct (MCAO rats [9]; day 5 after reperfusion): almost completely recovered

Scr-A^488: scrambled peptide labeled with Alexa^488 (YCNSTVCY; cysteine pairing not given here; also: labeled with Alexa-488, position not given here) [reference compound]
fluorescence exposure in the liver and kidneys, Scr-A^488 group versus FTP-A^488 group [10]: much more
fluorescence signal in other organs [10]: no signal was found
fluorescence signal in the lungs [10]: slight fluorescence signal
localization of labeled peptide in the brain [10]: strong localization
retention of labeled peptide in the brain [10]: not maintained

FTP-A^488: FTP conjugated with Alexa-488 for bio-distribution (YCDEHFCY; cysteine pairing not given here; also: conjugated with Alexa-488, position not given here)
fluorescence signal in other organs [10]: no signal was found
fluorescence signal in the lungs [10]: slight fluorescence signal
localization of labeled peptide in the brain [10]: localization of labeled peptides occurred
retention of labeled peptide in the brain [10]: maintained in the brains of MCAO-treated rats

YCNSTVCY [ScrFTP, scrambled peptide used as a control peptide, reference compound]
binding to Fas-expressing hypoxic cells (Fas [1]; [12]): did not bind to the hypoxic cells
rats that died over time (MCAO rats [3]): 11 rats
decrease of cleaved caspase-8 ([6]; FIG. 2C): did not decrease cleaved caspase 8
progressive effect on behavior after MCAO (MCAO rats [7]; between day 1 and day 5): worsened

B1: scrambled peptide (Scr-FTP) (peptide)
peptide: YCNSTVCY
modifications: cysteine pairing not given here; also: Alexa488 label in binding assays, site not given here
notes: also called scrambled-FTP; Scr-A488
binding result [11]: no binding
